{
  "source": "patent US20050014268A1",
  "about": "“Genetic transformation using a PARP inhibitor” (Bayer BioScience NV, priority 1995, published 2005)",
  "test_system": "wheat embryogenic callus (variety Pavon)",
  "experiment": "Transformation of wheat calli with barnase/bar plasmids by particle bombardment, with niacinamide treatment of the calli",
  "assay_type": "cell-based",
  "procedure": "The Wheat Spring variety Pavon is grown in a greenhouse or conditioned room at 23-24° C. during daytime and 18-20° C. at night, with a photoperiod of 16 hours light and 8 hours dark. Developing seeds (white-greenish with white semi-liquid endosperm) were harvested, sterilized by incubation for 1 minute in 70% ethanol followed by 15 minute incubation in 1.3% NaOCl+0.1% Tween 20, and washed with sterile water. The sterilized seeds were either used directly or were stored for one day at 4-7° C.\nImmature embryos of about 1 mm in size were isolated and were placed, with the scutellum upwards, on callus inducing medium W1 (MS medium supplemented with 3% sucrose, 40 mg/l adenine.SO4, 0.5 mg/l thiamine.HCl, 0.5 g/l 2-[N-Morpholino] ethane sulfonic acid (Mes) pH 5.8, 0.5% agarose, 0.5 to 2.5 mg/l CuSO4.5H2O, 25 mg/l acetylsalicylic acid and 2 mg/l 2,4-dichlorophenoxyacetic acid (2,4-D)) and were incubated for 3 weeks at 27° C. in the dark.\nEmbryogenic sections of the developing callus were isolated, placed on callus maintenance medium W2 (W1 medium but without acetylsalicylic acid and with only 0.5 mg/l CuSO4.5H2O and 1 mg 2,4-D), and incubated for 3 weeks at 24-25° C. in the light (approx. 20 mEinsteins/s/m^2 (with a photoperiod of 16 hours light and 8 hours dark).\nAbout 2 weeks prior to bombardment the calli were cleaned up by removal of non-morphogenic (i.e. the nonembryogenic and nonmeristematic) parts and were subcultured on W2 medium.\nFor bombardment the calli were divided into small pieces with an average maximum diameter of about 2-3 mm. These pieces were placed at the center of a 9 cm Petridish containing W2 medium in a circle with a diameter of approx. 0.5 cm. […]\nBombardment was carried out using the Biolistic PDS-1000/He apparatus (Bio-Rad). Preparation of the microcarriers ([…]) and the coating of the microcarriers with DNA was essentially carried out according to the manufacturer's instructions. The Petridishes containing the calli were placed at level 2 of the apparatus and the bombardment was done at 1550 psi.\nFor the transformation experiments the following plasmid DNA was used. • plasmid pVE136, the sequence of which is given in SEQ ID No 4. This plasmid contains the following chimeric genes: • P35S-bar-3′nos • PCA55-barnase-3′nos • in which P35S is the 35S promoter of the Cauliflower, Mosaic virus, bar is a DNA encoding phosphinothricin acetyltransferase (EP 242236), 3′nos is the 3′ untranslated end of the Agrobacterium T-DNA nopaline synthase gene, PCA55 is a stamen-specific promoter from corn gene CA55 (WO 9213957), and barnase is a DNA encoding barnase (Hartley, 1988, J.Mol.Biol.202:913-915) • plasmid pTS172 the sequence of which is given in SEQ ID No 2. This plasmid contains the following chimeric genes: • P35S-bar-3′g7 • PE1-barnase-3′nos • in which in which P35S is the 35S promoter of the Cauliflower Mosaic virus, bar is a DNA encoding phosphinothricin acetyltransferase (EP 242236), 3′g7 is the 3′ untranslated end of the Aqrobacterium T-DNA gene 7, PE1 is a stamen-specific promoter from rice gene E1 (WO 9213956), barnase is a DNA encoding barnase (Hartley, 1988, J.Mol.Biol.202:913-915), and 3′ nos is the 3′ untranslated end of the Agrobacterium T-DNA nopaline synthase gene, • plasmid pTS772 which is identical to pTS172 except that the region between nucleotides 2625-4313 of pTS172, containing PE1, is replaced by the sequence of SEQ ID No 3 containing the PT72 promoter. Thus, plasmid pTS772 contains the following chimeric genes: • P35S-bar-3′g7 • PT72-barnase-3′nos • in which PT72 is a stamen-specific promoter from rice gene T72 (WO 9213956)\nThe bombarded calli were transferred to selective medium W2 containing 2.5 mg/l phosphinothricin (PPT) and, if neccesary, 100 mg/l niacinamide. The calli that were placed on medium containing niacinamide were transferred after 4 days to niacinamide-free W2 medium containing 2.5 mg/l PPT. The cells were cultured at 24-25° C. […]",
  "key": {"[1]": {"conditions": "Plasmid pTS172, Before 250, 125 bombarded calli"}, "[2]": {"conditions": "Plasmid pTS772, Before 250, 210 bombarded calli"}, "[3]": {"conditions": "Plasmid pTS772, Before/After, 210 bombarded calli"}},
  "note": "Marks after values point to notes of the source that are not given here.",
  "data": [
    {"smiles": "NC(=O)c1cccnc1", "note": "[niacinamide]", "values": [
      {"measurement": "Nr of PPT-resistant calli recovered", "setting": "Plasmid pTS172, Before 250 (250 mg/l niacinamide for four days prior to bombardment), 125 bombarded calli", "result": 30},
      {"measurement": "Nr of MS plants recovered", "setting": "[1]", "result": "3^b)"},
      {"measurement": "Nr of PPT resistant plants recovered", "setting": "[1]", "result": 3},
      {"measurement": "appearance of the obtained plants", "setting": "Plasmid pTS172, Before 250, MS plants", "result": "^b)The obtained plants looked healthy and tillered vigorously"},
      {"measurement": "Nr of PPT resistant plants recovered", "setting": "[2]", "result": 7},
      {"measurement": "Nr of PPT-resistant calli recovered", "setting": "[2]", "result": 75},
      {"measurement": "Nr of MS plants recovered", "setting": "Plasmid pTS772, Before 250, 210 bombarded calli, only six plants could be analyzed for MS phenotype", "result": "3^a)b)"},
      {"measurement": "appearance of the obtained plants", "setting": "Plasmid pTS772, Before 250 and Before/After, MS plants", "result": "^a)The obtained plants looked healthy and tillered vigorously"},
      {"measurement": "Nr of PPT-resistant calli recovered", "setting": "Plasmid pTS772, Before/After (250 mg/l four days prior plus 100 mg/l four days after bombardment), 210 bombarded calli", "result": 45},
      {"measurement": "Nr of MS plants recovered", "setting": "[3]", "result": "3^a"},
      {"measurement": "Nr of PPT resistant plants recovered", "setting": "[3]", "result": 6},
      {"measurement": "Nr of PPT resistant plants recovered", "setting": "Plasmid pVE136, Before 100 (100 mg/l niacinamide for four days prior to bombardment), 800 bombarded calli", "result": "8^a)"},
      {"measurement": "Nr of MS plants recovered", "setting": "Plasmid pVE136, Before 100, 800 bombarded calli", "result": 8},
      {"measurement": "appearance of the obtained plants", "setting": "Plasmid pVE136, Before 100, PPT resistant plants", "result": "^a)The obtained plants looked healthy and tillered vigorously"},
      {"measurement": "recovery of plants from bombarded calli", "setting": "Tables 1, 2 and 3, treated versus untreated calli", "result": "obtained only from bombarded calli that were treated with niacinamide"}
    ]}
  ]
}
